Reference: patent EP0048614B1, “1-N-acylated and 1-N-alkylated derivatives of 4-0-substituted -2-deoxystreptamine aminoglycosides” (ELI LILLY AND COMPANY, priority 1980, dated 1982)
Values after ≈ are worked out from the molar mass of the structure shown. Values joined by “and” are separate entries in the source; they are usually repeats but may differ in a detail not shown here. Equal entries are not always repeated. Where two headings read alike, the source gives them in different places.

Tests used:
[1] = tested on: Staphylococcus aureus 3055; test: Subcutaneous therapy of experimental bacterial infection in mice (ED50); type: in vivo; conditions: Staphylococcus aureus, 3055, sc
Procedure: Table II illustrates the effective dose (ED50, the effective dose to protect 50 percent of the test animals) for representative compounds of this invention against an experimental bacterial infection in mice.
The ED50 values were determined as described by W. E. Wick et al., Journal of Bacteriology, 81 [No. 2], 233-235 (1961).

B. subtilis X12 = test: Bioautography of thin layer chromatography plate; type: cell-based; conditions: TLC plate of the reaction mixture against B. subtilis X12
Procedure: Apramycin (54 mg, 0.1 mmol) was dissolved in water (1 ml). Zinc acetate dihydrate (100 mg, 0.4 mmol) was added to this solution and the mixture was briefly sonicated to disperse crystals of zinc acetate. The ' mixture was diluted with dimethylformamide (5 ml), 1-iodo-n-butane (0.115 ml), 1 mmol) was added and this reaction mixture was stirred at room temperature for 4 days.

Hemophilus influenzae 76 = test: MIC, standard agar dilution test; type: cell-based
Description: (§1) The antibacterial activity of the deprotected compounds of this invention is illustrated by the following in vitro and in vivo test data obtained with representative compounds. In Table I, the minimum inhibitory concentration (MIC) for representative compounds against a wide range of gram-positive and gram-negative bacteria is presented. The MIC values were obtained by the standard agar dilution test.

[2] = tested on: Enterobacter aerogenes X68; test: MIC, standard agar dilution test; type: cell-based
Description: as §1

[3] = tested on: Staphylococcus aureus X400; test: MIC, standard agar dilution test; type: cell-based
Description: as §1

Proteus rettgeri PR7 = test: MIC, standard agar dilution test; type: cell-based
Description: as §1

Escherichia coli N10 = test: MIC, standard agar dilution test; type: cell-based; conditions: agar dilution
Description: as §1

[4] = tested on: Hemophilus influenzae C.L.; test: MIC, standard agar dilution test; type: cell-based; conditions: Hemophilus influenzae C.L.
Description: as §1

[5] = tested on: Staphylococcus aureus X1.1; test: MIC, standard agar dilution test; type: cell-based; conditions: Staphylococcus aureus X1.1, agar dilution
Description: as §1

Serratia marcescens X99 = test: MIC, standard agar dilution test; type: cell-based
Description: as §1

Escherichia coli X563 = test: Standard disc-plate method, zone of inhibition against apramycin-resistant strain; type: cell-based; conditions: 15 mcg/disc; apramycin-resistant E. coli X563; one value for each of two test runs per compound; listed as 2
Description: Table III, shown below, illustrates the in vitro activity of 1-N-(S-y-amino-a-hydroxybutyryl)apramycin, 1-N-(RS-y-amino-a-hydroxybutyryl)apramycin, and 1-N-(S-y-amino-a-hydroxybutyryl)nebramine against an apramycin resistant strain of E. coli. The results below were obtained using the standard disc-plate method. The numerical values are the diameters in millimeters of the zones of inhibition observed against this bacterium. Compounds substituted with the y-amino-a-hydroxybutyryl and analogous side chains are useful in treating infections caused by apramycin resistant bacteria such as the one above.
The test organism (E. coli X563) used in the experiments summarized in Table III is resistant to apramycin due to a 3-N-acetyltransferase which enzymatically inactivates apramycin.

[6] = tested on: Pseudomonas aeruginosa Ps18; test: MIC, standard agar dilution test; type: cell-based; conditions: Pseudomonas aeruginosa Ps18; agar dilution; read-out: Minimum Inhibitory Concentration
Description: as §1

Enterobacter cloacae EB5 = test: MIC, standard agar dilution test; type: cell-based; conditions: Enterobacter cloacae EB5; agar dilution; read-out: Minimum Inhibitory Concentration
Description: as §1

[7] = tested on: Streptococcus group D X66; test: MIC, standard agar dilution test; type: cell-based; conditions: DX66; Streptococcus group D X66; agar dilution; read-out: Minimum Inhibitory Concentration
Description: as §1

[8] = tested on: Staphylococcus aureus S13E; test: MIC, standard agar dilution test; type: cell-based; conditions: read-out: Minimum Inhibitory Concentration
Description: as §1

Serratia marcescens SE3 = test: MIC, standard agar dilution test; type: cell-based; conditions: Serratia marcescens SE3; agar dilution; read-out: Minimum Inhibitory Concentration
Description: as §1

[9] = tested on: Salmonella heidelberg X514; test: MIC, standard agar dilution test; type: cell-based; conditions: Salmonella enterica; Salmonella heidelberg X514; agar dilution; read-out: Minimum Inhibitory Concentration
Description: as §1

Proteus inconstans PR33 = test: MIC, standard agar dilution test; type: cell-based; conditions: Providencia alcalifaciens; Proteus inconstans PR33; agar dilution; read-out: Minimum Inhibitory Concentration
Description: as §1

[10] = tested on: Bordetella bronchiseptica 16; test: MIC, standard agar dilution test; type: cell-based; conditions: Bordetella bronchiseptica 16; agar dilution; read-out: Minimum Inhibitory Concentration
Description: as §1

[11] = tested on: Enterobacter cloacae 265A; test: MIC, standard agar dilution test; type: cell-based; conditions: Enterobacter cloacae 265A; agar dilution; read-out: Minimum Inhibitory Concentration
Description: as §1

[12] = tested on: Klebsiella pneumoniae X26; test: MIC, standard agar dilution test; type: cell-based; conditions: Klebsiella pneumoniae X26; agar dilution; read-out: Minimum Inhibitory Concentration
Description: as §1

[13] = tested on: Streptococcus pneumoniae Park I; test: MIC, standard agar dilution test; type: cell-based; conditions: Streptococcus pneumoniae Park I; agar dilution; read-out: Minimum Inhibitory Concentration
Description: as §1

Proteus rettgeri C24 = test: MIC, standard agar dilution test; type: cell-based; conditions: Providencia rettgeri; Proteus rettgeri C24; agar dilution; read-out: Minimum Inhibitory Concentration
Description: as §1

Shigella sonnei N9 = test: MIC, standard agar dilution test; type: cell-based; conditions: read-out: Minimum Inhibitory Concentration
Description: as §1

[14] = tested on: Staphylococcus epidermidis EPI2; test: MIC, standard agar dilution test; type: cell-based; conditions: Staphylococcus epidermidis EPI2; agar dilution; read-out: Minimum Inhibitory Concentration
Description: as §1

[15] = tested on: Staphylococcus aureus V41; test: MIC, standard agar dilution test; type: cell-based; conditions: Staphylococcus aureus V41; agar dilution; read-out: Minimum Inhibitory Concentration
Description: as §1

[16] = tested on: Pseudomonas aeruginosa X528; test: MIC, standard agar dilution test; type: cell-based; conditions: Pseudomonas aeruginosa X528; agar dilution; read-out: Minimum Inhibitory Concentration
Description: as §1

Proteus morganii PR15 = test: MIC, standard agar dilution test; type: cell-based; conditions: Morganella morganii; Proteus morganii PR15; agar dilution; read-out: Minimum Inhibitory Concentration
Description: as §1

[17] = tested on: Citrobacter freundii CF17; test: MIC, standard agar dilution test; type: cell-based; conditions: Citrobacter freundii CF17; agar dilution; read-out: Minimum Inhibitory Concentration
Description: as §1

[18] = tested on: Streptococcus pyogenes C203; test: MIC, standard agar dilution test; type: cell-based; conditions: Streptococcus pyogenes C203; agar dilution; read-out: Minimum Inhibitory Concentration
Description: as §1

[19] = tested on: Pseudomonas aeruginosa X239; test: MIC, standard agar dilution test; type: cell-based; conditions: Pseudomonas aeruginosa X239; agar dilution; read-out: Minimum Inhibitory Concentration
Description: as §1

[20] = tested on: Salmonella typhimurium 1335; test: MIC, standard agar dilution test; type: cell-based; conditions: Salmonella enterica; Salmonella typhimurium 1335; agar dilution; read-out: Minimum Inhibitory Concentration
Description: as §1

[21] = tested on: Enterobacter aerogenes C32; test: MIC, standard agar dilution test; type: cell-based; conditions: Klebsiella aerogenes; Enterobacter aerogenes C32; agar dilution; read-out: Minimum Inhibitory Concentration
Description: as §1

[22] = tested on: Staphylococcus epidermidis EPI1; test: MIC, standard agar dilution test; type: cell-based; conditions: Staphylococcus epidermidis EPI1; agar dilution; read-out: Minimum Inhibitory Concentration
Description: as §1

Escherichia coli TEM = test: MIC, standard agar dilution test; type: cell-based; conditions: read-out: Minimum Inhibitory Concentration
Description: as §1

[23] = tested on: Enterobacter aerogenes EB17; test: MIC, standard agar dilution test; type: cell-based; conditions: Klebsiella aerogenes; Enterobacter aerogenes EB17; agar dilution; read-out: Minimum Inhibitory Concentration
Description: as §1

Escherichia coli EC14 = test: MIC, standard agar dilution test; type: cell-based; conditions: Escherichia coli EC14; agar dilution; read-out: Minimum Inhibitory Concentration
Description: as §1

[24] = tested on: Streptococcus group D 9960; test: MIC, standard agar dilution test; type: cell-based; conditions: D9960; Streptococcus group D 9960; agar dilution; read-out: Minimum Inhibitory Concentration
Description: as §1

[25] = tested on: Klebsiella pneumoniae KAE; test: MIC, standard agar dilution test; type: cell-based; conditions: Klebsiella pneumoniae KAE; agar dilution; read-out: Minimum Inhibitory Concentration
Description: as §1

In the case of `CNC1C(OC2OC(CO)C(N)C(O)C2O)OC2CC(N)C(OC3C(N)CC(NC(=O)C(O)CCN)C(O)C3O)OC2C1O` (stereo not drawn), the ED50 ([1]; read-out: Effective Dose (ED50), mg/kg × 2 subcutaneous doses at 1 and 5 hours post infection, mice challenged with 331 LD50's) is reported as 7.1 mg/kg.
Compound `NCC[C@H](O)C(=O)N[C@@H]1C[C@H](N)[C@@H](O[C@H]2O[C@H](CN)[C@@H](O)C[C@H]2N)[C@H](O)[C@H]1O` has an ED50 ([1]; mg/kg × 2 subcutaneous doses at 1 and 5 hours post infection, mice challenged with 1,794 LD50's, read-out: Effective Dose (ED50)) of 8.75 mg/kg.
`CCCCNC1CC(N)C(OC2OC3C(CC2N)OC(OC2OC(CO)C(N)C(O)C2O)C(NC)C3O)C(O)C1O` (stereo not drawn) [1-N-(n-butyl)apramycin] was tested, and the “zone of inhibition (bioautography)” value (B. subtilis X12) was “good zone of inhibition”.
For `C=CCNC1CC(N)C(OC2OC3C(CC2N)OC(OC2OC(CO)C(N)C(O)C2O)C(NC)C3O)C(O)C1O` (stereo not drawn) [1-N-allylapramycin], the “zone of inhibition (bioautography)” value (B. subtilis X12) was “good zone of inhibition”.
For `CNC1C(OC2OC(CO)C(N)C(O)C2O)OC2CC(N)C(OC3C(N)CC(NCc4ccccc4)C(O)C3O)OC2C1O` (stereo not drawn) [1-N-benzylapramycin], the “zone of inhibition (bioautography)” value (B. subtilis X12) was “zone of inhibition”.
In the case of `CCCCNC1CC(N)C(O)C(O)C1OC1OC2C(CC1N)OC(OC1OC(CO)C(N)C(O)C1O)C(NC)C2O` (stereo not drawn) [3-N-(n-butyl)apramycin], the “zone of inhibition (bioautography)” value (B. subtilis X12) is reported as “not”.
With `CNC1C(OC2OC(CO)C(N)C(O)C2O)OC2CC(N)C(OC3C(N)CC(NC(=O)C(O)CCN)C(O)C3O)OC2C1O` (stereo not drawn) [Test Compound 2, 1-N-(RS-γ-amino-α-hydroxybutyryl)apramycin] the “Minimum Inhibitory Concentration” value (Hemophilus influenzae 76; Hemophilus influenzae 76) was 32 µg/mL, the “Minimum Inhibitory Concentration” value ([2]; Enterobacter aerogenes X68) was 16 µg/mL and the “Minimum Inhibitory Concentration” value ([3]; Staphylococcus aureus X400) was 64 µg/mL. The “Minimum Inhibitory Concentration” value (Proteus rettgeri PR7; Proteus rettgeri PR7) was 4 µg/mL, the “Minimum Inhibitory Concentration” value (Escherichia coli N10; Escherichia coli N10) was 16 µg/mL and the “Minimum Inhibitory Concentration” value [4] was 32 µg/mL. For the same compound, the “Minimum Inhibitory Concentration” value [5] was 8 µg/mL, the “Minimum Inhibitory Concentration” value (Serratia marcescens X99; Serratia marcescens X99) was 16 µg/mL and the “Zone of Inhibition (diameter in mm)” value (Escherichia coli X563) was 12.5 mm and 13.6 mm.
With `NCC[C@H](O)C(=O)N[C@@H]1C[C@H](N)[C@@H](O[C@H]2O[C@H](CN)[C@@H](O)C[C@H]2N)[C@H](O)[C@H]1O` [Test Compound 5, 1-N-(S-γ-amino-α-hydroxybutyryl)nebramine] the MIC (Hemophilus influenzae 76; Haemophilus influenzae, Hemophilus influenzae 76, read-out: Minimum Inhibitory Concentration) was 16 µg/mL (≈ 39.3 µM), the MIC [6] was 32 µg/mL (≈ 78.5 µM) and the MIC (Enterobacter cloacae EB5) was 16 µg/mL (≈ 39.3 µM). The MIC [7] was over 128 µg/mL, the MIC [8] was 8 µg/mL (≈ 19.6 µM) and the MIC (Serratia marcescens SE3) was 16 µg/mL (≈ 39.3 µM). The MIC [9] was 16 µg/mL (≈ 39.3 µM), the MIC (Proteus inconstans PR33) was 8 µg/mL (≈ 19.6 µM) and the MIC [10] was 32 µg/mL (≈ 78.5 µM). For the same compound, the MIC [11] was 32 µg/mL (≈ 78.5 µM), the MIC [12] was 4 µg/mL (≈ 9.82 µM) and the MIC ([2]; Klebsiella aerogenes, Enterobacter aerogenes X68, read-out: Minimum Inhibitory Concentration) was 8 µg/mL (≈ 19.6 µM). For the same compound, the MIC [13] was 16 µg/mL (≈ 39.3 µM), the MIC (Proteus rettgeri C24) was 8 µg/mL (≈ 19.6 µM) and the MIC (Shigella sonnei N9) was 16 µg/mL (≈ 39.3 µM). The MIC [14] was 4 µg/mL (≈ 9.82 µM), the MIC [15] was 8 µg/mL (≈ 19.6 µM) and the MIC [16] was 64 µg/mL (≈ 157 µM). The MIC ([3]; Staphylococcus aureus X400, read-out: Minimum Inhibitory Concentration) was 64 µg/mL (≈ 157 µM), the MIC (Proteus rettgeri PR7; Providencia rettgeri, Proteus rettgeri PR7, read-out: Minimum Inhibitory Concentration) was 8 µg/mL (≈ 19.6 µM) and the MIC (Escherichia coli N10; Escherichia coli, N10, Escherichia coli N10, read-out: Minimum Inhibitory Concentration) was 8 µg/mL (≈ 19.6 µM). The MIC (Proteus morganii PR15) was 32 µg/mL (≈ 78.5 µM), the MIC [17] was 16 µg/mL (≈ 39.3 µM) and the MIC ([4]; Haemophilus influenzae, read-out: Minimum Inhibitory Concentration) was 16 µg/mL (≈ 39.3 µM). The MIC [18] was 16 µg/mL (≈ 39.3 µM), the MIC [19] was 32 µg/mL (≈ 78.5 µM) and the MIC [20] was 8 µg/mL (≈ 19.6 µM). The MIC [21] was 8 µg/mL (≈ 19.6 µM), the MIC ([5]; read-out: Minimum Inhibitory Concentration) was 8 µg/mL (≈ 19.6 µM) and the MIC [22] was 8 µg/mL (≈ 19.6 µM). For the same compound, the MIC (Escherichia coli TEM) was 2 µg/mL (≈ 4.91 µM), the MIC [23] was 8 µg/mL (≈ 19.6 µM) and the MIC (Escherichia coli EC14) was 16 µg/mL (≈ 39.3 µM). It also gave an MIC (Serratia marcescens X99; Serratia marcescens X99, read-out: Minimum Inhibitory Concentration) of 8 µg/mL (≈ 19.6 µM), an MIC [24] of over 128 µg/mL and an MIC [25] of 8 µg/mL (≈ 19.6 µM).
